According to ChEMBL document CHEMBL1152687, “Synthesis and biological evaluation of the metabolites of 2-(1-{3-[(6-chloronaphthalen-2-yl)sulfonyl]propanoyl}piperidin-4-yl)-5-methyl-1,2-dihydro-3H-imidazo[1,5-c]imidazol-3-one” (Bioorg Med Chem, 2009):

How the values were obtained:
Coagulation factor X = Coagulation factor X (Homo sapiens, UniProt P00742); test: Inhibition of human factor 10a by para-nitroanilide release assay
[1] = AUC (0 to 10 hrs) in cynomolgus monkey at 1 mg/kg, po; type: ADME, organism-based, Macaca fascicularis; design: time < 10 hr, dose 1 mg/kg, route oral; conditions: plasma
[2] = Plasma concentration in cynomolgus monkey at 1 mg/kg, po after 4 hrs; type: ADME, organism-based, Macaca fascicularis; design: dose 1 mg/kg, route oral
[3] = Plasma concentration in cynomolgus monkey at 1 mg/kg, po after 2 hrs; type: ADME, organism-based, Macaca fascicularis; design: dose 1 mg/kg, route oral
[4] = Plasma concentration in cynomolgus monkey at 1 mg/kg, po after 10 hrs; type: ADME, organism-based, Macaca fascicularis; design: dose 1 mg/kg, route oral
[5] = Plasma concentration in cynomolgus monkey at 1 mg/kg, po after 1 hr; type: ADME, organism-based, Macaca fascicularis; design: dose 1 mg/kg, route oral
[6] = Total clearance in cynomolgus monkey at 0.1 mg/kg, iv; type: ADME, organism-based, Macaca fascicularis; design: dose 0.1 mg/kg, route intravenous; conditions: in vivo
[7] = molecular target: Tissue-type plasminogen activator (Homo sapiens, UniProt P00750); test: Inhibition of human tissue plasminogen activator by para-nitroanilide release assay
Sequence of Tissue-type plasminogen activator (P00750 whole entry): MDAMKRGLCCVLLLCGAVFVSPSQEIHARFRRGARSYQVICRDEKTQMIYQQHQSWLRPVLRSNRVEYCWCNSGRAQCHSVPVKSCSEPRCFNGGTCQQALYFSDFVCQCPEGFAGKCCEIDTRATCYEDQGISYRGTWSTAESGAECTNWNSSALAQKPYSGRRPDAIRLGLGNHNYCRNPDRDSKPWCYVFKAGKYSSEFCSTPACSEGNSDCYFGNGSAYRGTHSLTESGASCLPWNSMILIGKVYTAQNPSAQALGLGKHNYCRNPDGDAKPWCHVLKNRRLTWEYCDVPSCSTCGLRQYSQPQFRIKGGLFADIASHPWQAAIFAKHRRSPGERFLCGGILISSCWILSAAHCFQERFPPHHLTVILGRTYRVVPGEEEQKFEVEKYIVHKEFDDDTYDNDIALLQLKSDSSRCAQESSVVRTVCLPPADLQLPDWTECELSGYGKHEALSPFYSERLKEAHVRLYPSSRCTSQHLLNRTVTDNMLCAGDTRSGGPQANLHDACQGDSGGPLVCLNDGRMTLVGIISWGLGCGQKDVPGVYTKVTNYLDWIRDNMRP

[8] = Volume of distribution at steady state in cynomolgus monkey at 0.1 mg/kg, iv; type: ADME, organism-based, Macaca fascicularis; design: dose 0.1 mg/kg, route intravenous; conditions: in vivo, read-out: Vdss
[9] = AUC in cynomolgus monkey at 1 mg/kg, po; type: ADME, organism-based, Macaca fascicularis; design: dose 1 mg/kg, route oral; conditions: plasma
Prothrombin = Prothrombin (Homo sapiens, UniProt P00734); test: Inhibition of human thrombin by para-nitroanilide release assay
[10] = Cmax in cynomolgus monkey at 1 mg/kg, po; type: ADME, organism-based, Macaca fascicularis; design: dose 1 mg/kg, route oral; conditions: in vivo
[11] = Mean residence time in cynomolgus monkey at 1 mg/kg, po; type: ADME, organism-based, Macaca fascicularis; design: dose 1 mg/kg, route oral; conditions: in vivo
Trypsin = Trypsin (Homo sapiens, UniProt P07477+P07478+P35030); test: Inhibition of human trypsin by para-nitroanilide release assay; type: protein assay
[12] = Oral bioavailability in cynomolgus monkey at 1 mg/kg, po; type: ADME, organism-based, Macaca fascicularis; conditions: in vivo
Plasminogen = Plasminogen (Homo sapiens, UniProt P00747); test: Inhibition of human plasmin by para-nitroanilide release assay
Sequence of Plasminogen (P00747 97-580 limits assumed): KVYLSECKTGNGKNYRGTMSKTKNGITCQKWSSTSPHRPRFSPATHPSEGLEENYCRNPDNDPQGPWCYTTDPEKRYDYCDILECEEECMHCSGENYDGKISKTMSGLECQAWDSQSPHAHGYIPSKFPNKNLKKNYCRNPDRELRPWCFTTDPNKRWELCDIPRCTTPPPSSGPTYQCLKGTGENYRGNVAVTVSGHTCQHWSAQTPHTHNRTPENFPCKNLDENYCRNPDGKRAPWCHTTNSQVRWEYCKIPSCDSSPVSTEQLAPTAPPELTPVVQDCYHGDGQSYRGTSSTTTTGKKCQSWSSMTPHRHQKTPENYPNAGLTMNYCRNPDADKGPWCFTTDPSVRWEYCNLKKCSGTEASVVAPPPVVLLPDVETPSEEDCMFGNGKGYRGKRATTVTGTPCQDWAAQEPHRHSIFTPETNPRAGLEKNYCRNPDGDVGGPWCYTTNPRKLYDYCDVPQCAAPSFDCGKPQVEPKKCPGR
Sequence of Plasminogen (P00747 581-810 limits assumed): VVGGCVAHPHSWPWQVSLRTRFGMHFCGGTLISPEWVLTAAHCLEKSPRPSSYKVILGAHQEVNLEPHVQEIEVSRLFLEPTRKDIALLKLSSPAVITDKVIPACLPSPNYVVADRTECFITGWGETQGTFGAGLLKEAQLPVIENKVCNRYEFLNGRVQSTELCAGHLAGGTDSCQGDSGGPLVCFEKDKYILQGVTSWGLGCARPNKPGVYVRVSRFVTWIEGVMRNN

Sequence of Coagulation factor X (P00742 41-179 limits assumed): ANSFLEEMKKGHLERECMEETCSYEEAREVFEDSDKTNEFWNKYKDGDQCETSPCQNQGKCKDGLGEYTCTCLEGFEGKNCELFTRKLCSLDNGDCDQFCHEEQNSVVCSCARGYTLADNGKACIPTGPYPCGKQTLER
Sequence of Coagulation factor X (P00742 235-488 limits assumed): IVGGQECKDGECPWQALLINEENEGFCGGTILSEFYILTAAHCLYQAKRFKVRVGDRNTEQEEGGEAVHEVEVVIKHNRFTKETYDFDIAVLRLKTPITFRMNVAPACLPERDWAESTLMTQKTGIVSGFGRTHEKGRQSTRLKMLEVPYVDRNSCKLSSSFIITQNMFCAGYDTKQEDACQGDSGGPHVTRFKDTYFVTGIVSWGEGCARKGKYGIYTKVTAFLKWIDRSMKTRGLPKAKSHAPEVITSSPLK

| SMILES | IC50 (Coagulation factor X) | AUC(0-t) at 10 h [1] | concentration at 4 h [2] | concentration at 2 h [3] | concentration at 10 h [4] | concentration at 1 h [5] | also measured |
| --- | --- | --- | --- | --- | --- | --- | --- |
| O=S(O)c1ccc2cc(Cl)ccc2c1 | > 5 µM | – | – | – | – | – | – |
| Cc1ncc2n1C(=O)N(C1CCN(C(=O)CCS(=O)(=O)c3ccc4cc(Cl)ccc4c3)CC1)C2 | – | 583 ng·h/mL | 65.9 ng/mL | 132 ng/mL | 9.9 ng/mL | 92.8 ng/mL | – |
| NC1CCN(C(=O)CCS(=O)(=O)c2ccc3cc(Cl)ccc3c2)CC1 | > 5 µM | – | – | – | – | – | – |
| Cc1ncc2n1C(=O)N(C1CCN(C(=O)[C@@H](O)CS(=O)(=O)c3ccc4cc(Cl)ccc4c3)CC1)C2 | – | 54.6 ng·h/mL | 91 ng/mL | 4.4 ng/mL | 3.6 ng/mL | 0.8 ng/mL | – |
| Cc1ncc2n1C(=O)N(C1CCN(C(=O)[C@H](O)CS(=O)(=O)c3ccc4cc(Cl)ccc4c3)CC1)C2 | – | 44.2 ng·h/mL | 6.5 ng/mL | 6.8 ng/mL | 1.8 ng/mL | 2.7 ng/mL | clearance [6]: 14.2 mL/min/kg; Ki [7]: > 60 µM; Vd [8]: 0.719 L/kg; AUC [9]: 307 ng·h/mL; Ki (Prothrombin): 1.9 µM; Cmax [10]: 30.5 ng/mL; MRT [11]: 7.05 h; Ki (Trypsin): > 60 µM; bioavailability [12]: 25.4%; Ki (Plasminogen): > 60 µM |
| O=C(CCS(=O)(=O)c1ccc2cc(Cl)ccc2c1)N1CCC(N2Cc3cnc(CO)n3C2=O)CC1 | – | 107 ng·h/mL | 13.3 ng/mL | 25 ng/mL | – | 16.6 ng/mL | clearance [6]: 11.9 mL/min/kg; Ki [7]: > 60 µM; Vd [8]: 0.588 L/kg; AUC [9]: 470 ng·h/mL; Ki (Prothrombin): 7.8 µM; Cmax [10]: 60.1 ng/mL; MRT [11]: 7.56 h; Ki (Trypsin): > 60 µM; bioavailability [12]: 32.3%; Ki (Plasminogen): > 60 µM |
| Cc1ncc2n1C(=O)N(C1CCN(C(=O)C(=O)CS(=O)(=O)c3ccc4cc(Cl)ccc4c3)CC1)C2 | 0.93 µM | – | – | – | – | – | – |
| O=C(O)CCS(=O)(=O)c1ccc2cc(Cl)ccc2c1 | > 5 µM | – | – | – | – | – | – |
